Laboratory results taken from article PMC6929706, “In vivo alpha-V beta-3 integrin expression in human aortic atherosclerosis” (Heart, 2019).
Like-named read-outs stand apart in the source and are kept apart here.

Tests used:
αvβ3 integrin receptors = biological target: T1, αvβ3 integrin receptors (Homo sapiens, UniProt P05106+P06756); assay: 18F-fluciclatide autoradiography of carotid endarterectomy sections; type: binding
T1 construct: from tissue; host or cells: human carotid endarterectomy specimens (frozen sections)
Protocol: Carotid endarterectomy specimens (online supplementary data) were fresh frozen and sectioned in cryosection medium. Both atheromatous and non-atheromatous segments were fixed, stained with H&E and examined by immunohistochemistry for smooth muscle actin, CD31, CD68 and αvβ3 integrin receptor expression before digital image capture (Axioscan .Z1, Zeiss, UK). Image analysis was performed on ImageJ32 software (National Institutes of Health, Bethesda, Maryland, USA). Staining was expressed as a percentage of the total plaque area and with an object size set threshold applied at 20×10 pixels, to limit counting to cell-sized objects. The density of cell staining in the endarterectomy tissue was expressed as cells per mm^2.[18]
Autoradiography was performed to identify the precise localisation of 18F-fluciclatide binding in atherosclerotic tissue. Carotid sections were bathed in a solution of 18F-fluciclatide (1 kBq/mL) for 60 min and rinsed with phosphate buffer solution. To rule out non-specific radiotracer uptake, an un-labelled highly concentrated solution of fluciclatide was added to bind competitively with the αvβ3 integrin receptors. 18F-Fluciclatide binding was imaged using a FujiFilm FLA-5100 Fluorescent Image Analyser (Raytek Scientific, Sheffield, UK). […]
antibody, clone LM609 (Millipore) for 30 min at room temperature. After washing, the sections were incubated with Envision Flex (DAKO, K5007) for 30 min at room temperature, followed by incubation with diaminobenzamine (Sigma) for 10 min. The slides were finally counterstained with hematoxylin and digitally imaged (Axioscan.Z1, Zeiss, UK).
Clinical PET systems have limited resolution. To gain more detailed information about the precise localization of 18F-fluciclatide binding in atherosclerotic tissue, we undertook autoradiography. The 20 μm frozen sections adjacent to those used for immunohistochemical analysis were warmed to room-temperature and bathed in a solution of 18F-fluciclatide at a concentration close to in vivo imaging concentrations (1 kBq/mL) for 60 minutes and then rinsed with phosphate buffer solution. An unlabeled highly concentrated solution of fluciclatide was added to selected slides in order to competitively bind to αvβ3 to assess for non-specific tracer uptake. A freshly blanked phosphor screen was then placed over the slides and an overnight exposure undertaken. The screen was read using a FujiFilm FLA-5100 Fluorescent Image Analyser (Raytek Scientific Limited, Sheffield, UK). Sections were then manually registered and examined for co-localization with histological markers of atherosclerotic disease

[1] = biological target: αvβ3 integrin in thoracic aortic atheroma (Homo sapiens, UniProt P05106+P06756)
Protocol: (§1) All patients in the imaging cohort underwent PET-CT imaging of the thorax with a hybrid scanner (Biograph mCT, Siemens Medical Systems, Erlangen, Germany) at the Clinical Research Imaging Centre, University of Edinburgh. Subjects were administered a target dose of 230 MBq 18F-fluciclatide. An attenuation correction CT scan (non-enhanced 120 kV and 50 mA, 3 mm slices) was performed prior to PET acquisition. To define tracer pharmacodynamics and the optimum timing of scanning, dynamic PET imaging of the thorax was performed in the initial 20 patients in three-dimensional (3-D) mode using a single bed position for 70 min.
Kinetic analysis was performed on the dynamic PET studies to investigate the pharmacodynamics of 18F-fluciclatide uptake within atheroma. […] In all patients, static electrocardiogram-gated PET images were reconstructed in diastole (40–70 min postinjection, 50%–75% of the R-R interval, Ultra-HD, 2 iterations, 21 subsets, zoom ×2, 200 pixels). […] PET images were fused with the attenuation correction CT, and regions of interest drawn around the thoracic aorta on serial axial slices just beyond the discernible adventitial border. Aortic uptake was assessed in three regions: the ascending thoracic aorta (from the level of mid-right pulmonary artery up to the last slice where the aorta maintained its circular cross-sectional appearance), the descending thoracic aorta (the region extending from the tip of the diaphragm up to the last circular slice) and the aortic arch (the region of the aorta connecting the ascending and descending aorta). Within these regions, mean and maximum tracer activities were measured using standard uptake values (SUV; the decay corrected tissue concentration of the tracer divided by the injected dose per body weight, kBq/mL) and corrected for mean radiotracer blood pool activity to provide a mean of the TBRmax (mean TBRmax).[5 19 20] […] In a substudy of 10 randomly selected subjects, images were assessed independently by two experienced observers and the interobserver reproducibility of 18F-fluciclatide SUV and TBR measurements assessed.
Continuous data were tested for normality visually and with the D’Agostino-Pearson omnibus test. Continuous data were presented as median (IQR) and compared using Pearson’s or Spearman’s correlation or Wilcoxon signed-rank test as appropriate.

[2] = design: species or system human; conditions: in vivo
From the text: A total of 46 subjects underwent PET imaging with CT angiography (age 66±10 years, 74% male; table 1) following injection of 229 (IQR 217–237) […] 18F-fluciclatide. Of the 46 subjects recruited, 19 had suffered a recent MI (unstable cohort), and 27 had imaging evidence of aortic atherosclerosis on CT but no recent cardiovascular events (stable cohort: 6 with stable angina and 21 with subclinical disease who were asymptomatic with no prior cardiovascular events). […] The groups were well matched for gender (p=0.97) and body mass index (p=0.39), and were both characterised by high prevalence of atherosclerotic risk factors, with more smokers in the unstable group (p<0.001) and more patients with hypertension in the stable group (p=0.02).

[3] = biological target: aortic atheroma (αvβ3 integrin) (Homo sapiens, UniProt P05106+P06756)
aortic atheroma (αvβ3 integrin), sequence (P06756 31-889 limits assumed): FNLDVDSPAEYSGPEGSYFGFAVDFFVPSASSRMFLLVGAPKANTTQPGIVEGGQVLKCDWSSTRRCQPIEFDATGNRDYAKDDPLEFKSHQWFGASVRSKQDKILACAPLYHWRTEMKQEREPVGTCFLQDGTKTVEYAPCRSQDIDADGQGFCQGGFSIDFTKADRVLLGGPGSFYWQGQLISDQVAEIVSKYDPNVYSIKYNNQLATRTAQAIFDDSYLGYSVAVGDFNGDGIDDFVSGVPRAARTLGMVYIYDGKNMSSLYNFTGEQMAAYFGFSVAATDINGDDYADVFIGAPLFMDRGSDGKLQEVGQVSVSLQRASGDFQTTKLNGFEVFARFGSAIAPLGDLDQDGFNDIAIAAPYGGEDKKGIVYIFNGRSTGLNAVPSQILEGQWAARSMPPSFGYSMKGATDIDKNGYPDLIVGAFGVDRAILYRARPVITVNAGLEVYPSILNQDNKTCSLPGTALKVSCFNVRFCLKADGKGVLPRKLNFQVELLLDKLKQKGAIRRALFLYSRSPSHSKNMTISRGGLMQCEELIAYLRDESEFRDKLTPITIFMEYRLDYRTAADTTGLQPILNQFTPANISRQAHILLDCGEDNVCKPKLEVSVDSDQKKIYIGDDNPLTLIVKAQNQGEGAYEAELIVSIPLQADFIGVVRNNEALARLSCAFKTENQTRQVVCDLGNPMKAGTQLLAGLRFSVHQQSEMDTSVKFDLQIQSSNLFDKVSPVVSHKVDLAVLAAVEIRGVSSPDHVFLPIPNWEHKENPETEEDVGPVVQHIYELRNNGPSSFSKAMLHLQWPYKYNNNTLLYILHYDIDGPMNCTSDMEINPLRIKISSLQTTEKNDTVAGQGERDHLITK
aortic atheroma (αvβ3 integrin), sequence (P06756 891-1048 partner limits assumed): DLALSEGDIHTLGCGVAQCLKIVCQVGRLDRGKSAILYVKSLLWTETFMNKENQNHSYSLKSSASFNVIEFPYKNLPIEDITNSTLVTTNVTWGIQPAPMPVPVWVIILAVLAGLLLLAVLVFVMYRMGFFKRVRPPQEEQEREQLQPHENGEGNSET
aortic atheroma (αvβ3 integrin), sequence (P05106 27-788): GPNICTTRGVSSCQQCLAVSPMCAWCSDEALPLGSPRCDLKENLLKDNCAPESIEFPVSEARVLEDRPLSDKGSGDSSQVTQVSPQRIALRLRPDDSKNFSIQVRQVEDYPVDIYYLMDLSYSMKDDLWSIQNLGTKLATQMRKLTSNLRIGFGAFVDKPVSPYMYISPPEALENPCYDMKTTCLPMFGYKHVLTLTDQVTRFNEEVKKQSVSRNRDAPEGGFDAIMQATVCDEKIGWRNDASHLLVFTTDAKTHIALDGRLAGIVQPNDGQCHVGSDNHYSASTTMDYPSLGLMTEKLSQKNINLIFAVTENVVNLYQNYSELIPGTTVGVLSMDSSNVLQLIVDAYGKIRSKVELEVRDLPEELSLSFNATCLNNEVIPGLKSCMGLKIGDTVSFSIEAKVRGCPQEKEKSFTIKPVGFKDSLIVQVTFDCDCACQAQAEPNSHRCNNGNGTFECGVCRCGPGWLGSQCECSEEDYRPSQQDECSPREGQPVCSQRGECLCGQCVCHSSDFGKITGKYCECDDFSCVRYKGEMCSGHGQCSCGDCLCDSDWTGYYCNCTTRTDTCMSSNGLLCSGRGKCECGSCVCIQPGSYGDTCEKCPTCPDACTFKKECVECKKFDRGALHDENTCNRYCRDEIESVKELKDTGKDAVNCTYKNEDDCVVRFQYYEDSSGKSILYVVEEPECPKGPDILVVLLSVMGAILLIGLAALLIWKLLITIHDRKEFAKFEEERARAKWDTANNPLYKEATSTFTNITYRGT
Protocol: as §1
Kinetic analysis was performed on the dynamic PET studies to investigate the pharmacodynamics of 18F-fluciclatide uptake within atheroma. […] In all patients, static electrocardiogram-gated PET images were reconstructed in diastole (40–70 min postinjection, 50%–75% of the R-R interval, Ultra-HD, 2 iterations, 21 subsets, zoom ×2, 200 pixels). Images were analysed by experienced observers blinded to the demographic data (WJ, AV) using an OsiriX workstation (OsiriX V.6.0 64-bit; OsiriX Imaging Software, Geneva, Switzerland). PET images were fused with the attenuation correction CT, and regions of interest drawn around the thoracic aorta on serial axial slices just beyond the discernible adventitial border. Aortic uptake was assessed in three regions: the ascending thoracic aorta (from the level of mid-right pulmonary artery up to the last slice where the aorta maintained its circular cross-sectional appearance), the descending thoracic aorta (the region extending from the tip of the diaphragm up to the last circular slice) and the aortic arch (the region of the aorta connecting the ascending and descending aorta). Within these regions, mean and maximum tracer activities were measured using standard uptake values (SUV; the decay corrected tissue concentration of the tracer divided by the injected dose per body weight, kBq/mL) and corrected for mean radiotracer blood pool activity to provide a mean of the TBRmax (mean TBRmax).[5 19 20] […]

αvβ3 integrin in thoracic aortic atheroma, sequence (P06756 31-889 limits assumed): as the sequence (P06756 31-889 limits assumed) above
αvβ3 integrin in thoracic aortic atheroma, sequence (P06756 891-1048 partner limits assumed): as the sequence (P06756 891-1048 partner limits assumed) above
αvβ3 integrin in thoracic aortic atheroma, sequence (P05106 27-788): as the sequence (P05106 27-788) above
T1 sequence (P06756 31-889 limits assumed): as the sequence (P06756 31-889 limits assumed) above
T1 sequence (P06756 891-1048 partner limits assumed): as the sequence (P06756 891-1048 partner limits assumed) above
T1 sequence (P05106 27-788): as the sequence (P05106 27-788) above

18F-fluciclatide
Non-specific binding on autoradiography (αvβ3 integrin receptors; carotid atheroma, ex vivo): no evidence of non-specific binding | 18F-fluciclatide uptake in regions of carotid endarterectomy specimen without visible atheroma (αvβ3 integrin receptors; ex vivo autoradiography, 1 kBq/mL, 60 min): did not demonstrate 18F-fluciclatide uptake | 18F-fluciclatide binding in carotid plaque on autoradiography (αvβ3 integrin receptors; ex vivo carotid sections bathed in 1 kBq/mL for 60 min, atheromatous regions): focal 18F-fluciclatide binding in regions of advanced atherosclerosis | TBRmax range in aortic atheroma ([1]; 40–70 min postinjection): 1.08–1.68 | Total aortic uptake (mean TBRmax), current smokers ([1]; All patients, median (IQR)): 1.32 | Total aortic uptake (mean TBRmax), not current smokers ([1]; All patients, median (IQR)): 1.29 (1.19–1.39) | Total aortic uptake (mean TBRmax), with established ischaemic heart disease ([1]; All patients, median (IQR)): 1.34 (1.22–1.42) | Total aortic uptake (mean TBRmax), with hypercholesterolaemia ([1]; All patients, median (IQR)): 1.34 (1.21–1.42) | Total aortic uptake (mean TBRmax), with hypertension ([1]; All patients, median (IQR)): 1.33 (1.19–1.39) | Total aortic uptake (mean TBRmax), without diabetes mellitus ([1]; All patients, median (IQR)): 1.29 (1.19–1.38) | Total aortic uptake (mean TBRmax), without established ischaemic heart disease ([1]; All patients, median (IQR)): 1.25 (1.19–1.35) | Total aortic uptake (mean TBRmax), without hypercholesterolaemia ([1]; All patients, median (IQR)): 1.27 (1.19–1.34) | Total aortic uptake (mean TBRmax), without hypertension ([1]; All patients, median (IQR)): 1.29 (1.20–1.40) | Total aortic uptake (mean TBRmax), with diabetes mellitus ([1]; Stable cohort, median (IQR)): 1.37 (1.28–1.58) | Total aortic uptake (mean TBRmax), with established ischaemic heart disease ([1]; Stable cohort, median (IQR)): 1.37 (1.37–1.42) | Total aortic uptake (mean TBRmax), with hypercholesterolaemia ([1]; Stable cohort, median (IQR)): 1.36 | Total aortic uptake (mean TBRmax), with hypertension ([1]; Stable cohort, median (IQR)): 1.27 (1.21–1.38) | Total aortic uptake (mean TBRmax), without diabetes mellitus ([1]; Stable cohort, median (IQR)): 1.29 (1.19–1.37) | Total aortic uptake (mean TBRmax), without hypertension ([1]; Stable cohort, median (IQR)): 1.33 (1.19–1.38) | Aortic Arch (mean TBRmax) ([1]; Unstable atherosclerosis (n=19, recent MI), median (IQR)): 1.29 | TBRmax on standard analysis, subjects without visible uptake on Patlak analysis ([1]; comparison p=0.08): 1.19±0.03 | TBRmax on standard analysis, subjects with uptake present on Patlak analysis ([1]; n=7): 1.32±0.05 | Adverse events following administration [2]: No adverse events were reported | Average total radiation dose per participant [2]: 15 mSv | Nature of ligand-receptor binding by Patlak modelling ([3]; 2-tissue irreversible Patlak model, t* 20 min, over the selected acquisition time): irreversible ligand-receptor binding | Blood pool clearance half-life ([3]; human, in vivo, iv): about 10 min | Time at which activity within aortic atheroma reaches plateau ([3]; in vivo): 40 to 70 min

fluciclatide [reference compound]
Blocking of 18F-fluciclatide binding by un-labelled fluciclatide (αvβ3 integrin receptors; un-labelled highly concentrated solution added to compete at αvβ3): effectively blocked
